From publication PMC12501607, “Novel prolyl endopeptidase inhibitor from Myricaria germanica alleviates steatohepatitis” (RSC Advances, 2025)

Columns and labels:
[1] = target: T1, Prolyl endopeptidase (PREP) (Homo sapiens, UniProt P48147); assay: Chromogenic enzyme assay (Z-Gly-Pro-pNA, […] nm) with recombinant human PREP; assay type: biochemical
T1 sequence (P48147 1-710): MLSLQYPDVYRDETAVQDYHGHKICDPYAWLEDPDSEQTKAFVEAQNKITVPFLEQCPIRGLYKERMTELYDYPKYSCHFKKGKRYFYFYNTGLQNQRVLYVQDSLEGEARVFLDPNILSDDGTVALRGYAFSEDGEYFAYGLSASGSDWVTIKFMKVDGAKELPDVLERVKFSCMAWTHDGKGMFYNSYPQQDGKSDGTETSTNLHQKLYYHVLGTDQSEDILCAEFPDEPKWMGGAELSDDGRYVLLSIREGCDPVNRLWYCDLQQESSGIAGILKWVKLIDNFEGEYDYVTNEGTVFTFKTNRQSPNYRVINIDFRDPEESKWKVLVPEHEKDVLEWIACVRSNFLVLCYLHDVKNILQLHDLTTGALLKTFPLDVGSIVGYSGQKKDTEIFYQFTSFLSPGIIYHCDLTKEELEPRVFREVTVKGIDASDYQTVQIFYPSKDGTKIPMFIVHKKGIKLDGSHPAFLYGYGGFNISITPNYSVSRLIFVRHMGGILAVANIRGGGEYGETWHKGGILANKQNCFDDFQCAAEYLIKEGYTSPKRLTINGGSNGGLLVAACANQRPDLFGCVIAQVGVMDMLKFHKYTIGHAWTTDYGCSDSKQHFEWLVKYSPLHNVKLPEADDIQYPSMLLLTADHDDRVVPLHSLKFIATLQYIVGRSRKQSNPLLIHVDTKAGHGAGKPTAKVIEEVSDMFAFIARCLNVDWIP

[2] = target: T1, Prolyl endopeptidase (PREP); assay: Chromogenic enzyme assay (Z-Gly-Pro-pNA, […] nm) with recombinant human PREP; Lineweaver-Burk kinetics; assay type: biochemical

Row | IC50 [1] [µM] | IC50 [2] [µM] | Compound
1 | 155 ± 1.8 | – | COc1cc(C(=O)O)cc(OC)c1O [Fr-2, syringic acid]
2 | – | 20 ± 1.6 | CCCCCCCCCCCCCCCCCCCCCCCCCC1CCCCC1O (racemic) [PREPi, (±)-2-pentacosylcyclohexanol]
